Literature values as cited in patent US9457059B2, “Compositions and methods for treating renal failure” (La Jolla Pharmaceutical Company, priority 2013, dated 2016).

Experiments:
[1] = test system: patients with cirrhosis and ascites
[2] = test system: patients with cirrhosis and ascites; remark: listed apart in the source

C[C@H](CS)C(=O)N1CCC[C@H]1C(=O)O [captopril]
sodium excretion and urinary output [1]: significantly reduced both sodium excretion and urinary output

Asp-Arg-Val-Tyr-Ile-His-Pro-Phe (DRVYIHPF) [angiotensin II, peptide hormone that regulates blood pressure via vasoconstriction and sodium reabsorption]
tolerability ([2]; use in patients with cirrhosis and ascites): well-tolerated

Asp-Arg-Val-Tyr-Ile-His-Pro-Phe [angiotensin II, peptide hormone that regulates blood pressure via vasoconstriction and sodium reabsorption]
increase in urine output and sodium excretion compared with norepinephrine ([2]; Laragh et al., versus norepinephrine): much more pronounced than those produced by norepinephrine
natriuresis and urine output ([2]; patients with cirrhosis and ascites, no renal failure): induces marked natriuresis and urine output
increase in sodium excretion compared with norepinephrine ([2]; second study, Ames et al., versus norepinephrine): greater increase in sodium excretion compared to norepinephrine
